Assay results from patent publication US10960010B2, “Pharmaceutical compositions for sustained or delayed release” (INTRA-CELLULAR THERAPIES, INC., priority 2013, dated 2021).
“Also recorded” adds a separate entry of the source.

Tested on: patients with schizophrenia
Experiment: Randomized, double-blind, placebo-controlled in-patient trial, 4-week treatment, PANSS
Type: in vivo, human
Experimental: For purposes of this example, Compound A refers to the compound of Formula I wherein X is —N(CH3)— and Y is —C(O)—; tosylate salt unless otherwise indicated. A randomized, double-blind, placebo-controlled, in-patient trial is performed. Four treatment arms, 4-week treatment duration, QAM dosing are performed as follows: 60 mg of Compound A; 120 mg of Compound A; positive control (4 mg Risperidone); and placebo. The primary outcome is measured by the change from baseline on Positive and Negative Syndrome Scale (PANSS) Total Score at Day 28. Secondary measures explore key differentiating features.
60 mg Compound A Treatment Arm receives 60 mg of Compound A once daily for 28 days. 120 mg Compound A Treatment Arm receives 60 mg Compound A on Study Day 1 followed by 120 mg Compound A once daily for 27 days. Risperidone Treatment Arm receives 2 mg risperidone on Study Day 1 followed by 4 mg risperidone once daily for 27 days. Placebo Treatment Arm receives placebo once daily for 28 days. All doses are administered in the morning with breakfast.
Key inclusion criteria: Clinical diagnosis of schizophrenia according to DSM-IV-TR is confirmed by modified SCID-CT. Screening Brief Psychiatric […] Scale (BPRS) score of 40 or greater (18-items scored 1-7 each). Minimum score of 4 or higher on at least two of the following positive items: suspiciousness, conceptual disorganization, hallucinatory behavior, unusual thought content. Current exacerbated episode lasts no longer than 4 weeks. Sufficient history and/or independent reporter must verify that current state is an exacerbated state for the individual. Prior response to antipsychotic therapy within the last 5 years, defined as clinically significant and documented decrease in delusions and/or hallucinations during a documented exacerbated episode (and at least 3 months prior exposure to antipsychotic therapy).
The trial has a high subject completion rate (74%) compared to an average of 62% completion rate in other 4-week antipsychotic trials. 19% discontinues during the study treatment period (during Day 1-28). 7% completes study treatment through Day 28, but are lost to follow up.

[1] = 60 mg, sub-group of patients with depression at baseline

SMILES | Prosocial PANSS Factor change from baseline compared to placebo (60 mg) | general psychopathology subscale of the PANSS (60 mg) | items on the negative symptom and general psychopathology subscales consistent with improved social function (60 mg) | positive symptom subscale of the PANSS (60 mg) | Effect Size (Total PANSS) (60 mg Compound A) | LS Mean Difference from Placebo (Total PANSS, Day 28) (60 mg Compound A) | LS Mean Change from Baseline on Day 28 Total PANSS (±SE) using MMRM/ITT (60 mg Compound A (tosylate) once daily in the morning, 28 days, N = 76) | PANSS total score, result in words (60 mg once daily in the morning, after 28 days of treatment) | hyperprolactinemia, EPS/akathisia, weight gain, cardiovascular safety (60 mg once daily, 28 days) | negative symptoms (PANSS Negative Symptom Sub-Scale) [1] | total PANSS [1] | negative symptoms (PANSS Negative Symptom Sub-Scale) (60 mg, subgroup of patients with prominent negative symptoms at baseline) | depression as measured by the CDSS (60 mg, subgroup with CDSS score >6 at baseline) | Effect Size (Total PANSS) (120 mg Compound A) | LS Mean Difference from Placebo (Total PANSS, Day 28) (120 mg Compound A) | LS Mean Change from Baseline on Day 28 Total PANSS (±SE) using MMRM/ITT (120 mg Compound A (60 mg on Day 1, then 120 mg once daily 27 days), N = 80) | Effect Size (Total PANSS) (4 mg Risperidone) | LS Mean Difference from Placebo (Total PANSS, Day 28) (4 mg Risperidone) | LS Mean Change from Baseline on Day 28 Total PANSS (±SE) using MMRM/ITT (4 mg Risperidone (2 mg on Day 1, then 4 mg once daily 27 days), N = 75) | total PANSS and negative symptoms compared with the Compound of Formula I (risperidone arm, sub-group of patients with depression at baseline)
CN1CCN2c3c(cccc31)[C@@H]1CN(CCCC(=O)c3ccc(F)cc3)CC[C@@H]12 [Compound A] | significantly improve | statistically significantly improves | improves certain items | statistically significantly improves | 0.4 | −5.8 | −13.2 ± 1.7 | demonstrates antipsychotic efficacy; also recorded: statistically significant and clinically meaningful decrease | does not cause hyperprolactinemia, EPS/akathisia, weight gain or cardiovascular safety issues | robustly improves | robustly improves | improves negative symptoms qualitatively | significantly reduces depression | 0.1 | −0.9 | −8.3 ± 1.7 |  |  |  | 
Cc1nc2n(c(=O)c1CCN1CCC(c3noc4cc(F)ccc34)CC1)CCCC2 [Risperidone, reference compound] |  |  |  |  |  |  |  |  |  |  |  |  |  |  |  |  | 0.4 | −6.0 | −13.4 ± 1.7 | less effective
